Measurements reported in patent US8969026B2, “Polymeric reverse micelles as selective extraction agents and related methods of MALDI-MS analysis” (University of Massachusetts, priority 2007, dated 2015).
No end group written: not given here.

Assays:
[1] = Liquid-liquid extraction of pI markers by reverse micelles of homopolymer 3 in toluene, fluorescence of the aqueous phase; format: physicochemical; settings: for extraction efficiency: aqueous pH 6.0, reverse micelles present in the toluene phase
Description: The polymeric reverse micelle-like nanoassemblies have carboxylate groups in their interiors; therefore, positively charged pI markers are expected to be extracted. Upon extraction, the concentrations of the pI markers left in the aqueous phase were quantitatively determined by fluorescence spectroscopy. Analysis of the organic phase was difficult because the fluorescence spectrum of the polymer is very broad in this phase, and in many cases overlaps with the signal from the pI markers. As an example of the data from the aqueous solution, the fluorescence spectra of pI marker 2, before (solid line) and after extraction (dashed line), are shown in FIG. 3. […] The concentration of the pI marker remaining in the aqueous phase can be quantified, and in this example, it is determined that 46% of pI marker 2 remains, which means that 54% of it is extracted into the organic phase when the aqueous solution pH is 1.9. It is not surprising that most of this compound is extracted under these conditions. This marker hag a pI value of 3.0, and at an aqueous solution pH of 1.9, most of this compound is positively charged and therefore interacts favorably with the negatively-charged interior of the polymeric reverse micelles.
(§1) A two-phase liquid-liquid extraction protocol that was previously developed was employed. […] The top (organic) layer was removed and the bottom (aqueous) layer was analyzed by fluorescence spectroscopy. […]
(§2) The amount of pI marker left in the bottom (aqueous) layer after extraction was determined on a Photon Technology International fluorometer (Ontario, Canada). Analysis of the organic phase was difficult because the fluorescence spectrum of the polymer in this phase was very broad, and in many cases overlapped with the signal from the pI markers. The excitation and emission wavelengths for each pI marker were chosen to maximize the fluorescence signal. […] For most of the pI markers, the fluorescence intensity was very low under more acidic conditions, making it difficult to collect data at these lower pHs. The fluorescence intensity of the aqueous phase after a given extraction was measured, and in each case the fluorescence intensity was used to determine the concentration of the pI marker remaining in the aqueous phase after the extraction. The amount of pI marker that was extracted by the reverse micelles was then calculated by subtracting the remaining aqueous phase concentration from the initial concentration (1×10^−6 M). The fluorescence measurements were repeated at least 3 times for each extracted sample and the average values are reported.

[2] = Control extraction of pI markers into toluene alone (no polymer); format: physicochemical; settings: no reverse micelles / absence of polymer; pH independent
Protocol: Previously, it was shown for a series of peptides that charge complementarity exerts an important influence on the extraction process with these amphiphilic homopolymers. (See, M. Y. Combariza, E. N. Savariar, D. R. Vutukuri, S. Thayumanavan and R. W. Vachet, Anal. Chem. 2007, 79, 7124-7130.) Here, the importance of two other factors—hydrophobicity and aqueous solution pH—are assessed. Hydrophobicity might affect the extraction efficiency to some degree due to the toluene phase that surrounds the reverse micelles and the hydrocarbon functionality on the periphery of the reverse micelles. In order to investigate this effect, extractions of pI markers with different hydrophobicities were performed. As an example of the effect of hydrophobicity, the results from the extraction of two pI markers (4 and 7) at an aqueous phase pH of 6.0 are shown in FIG. 4. […]
as §1
as §2, with “The amount of pI marker that was extracted by the reverse micelles was then calculated by subtracting the remaining aqueous phase concentration from the initial concentration (1×10^−6 M). The fluorescence measurements were repeated at least 3 times for each extracted sample and the average values are reported.” left out

[3] = fluorescent pI markers, cited from earlier work
[4] = pH-dependent biphasic extraction of a peptide mixture with inverse micelles of polymer 1 in toluene, MALDI-MS ion abundance ratio; format: physicochemical; settings: polymer 1 inverse micelles in toluene, K = Iorg/Iaq, [M+H]+ signal, [M+K]+ for spinorphin and β-amyloid, at least 4 replicates; for Ion abundance ratio (K ± sM) pH 4.0: aqueous pH 4.0; for Ion abundance ratio (K ± sM) pH 7.1: aqueous pH 7.1; for Ion abundance ratio (K ± sM) pH 9.0: aqueous pH 9.0
Description: The net charge within the inverse micelle of 1 is negative, affording a selective extraction of positively-charged peptides. In a typical experiment, a toluene solution containing 1 was mixed with an aqueous solution containing a mixture of peptides. After vortexing this mixture, the organic layer was separated and analyzed using MALDI-MS. […] Because the aqueous solution was buffered at a pH of 7.1, peptides with pI values above 7.1 were expected to be sequestered into the interior of the inverse micelles, while peptides with pI values below 7.1 would be mostly excluded based on Coulombic repulsion.
The ion abundance ratio is related to the extraction capacity of the polymer, and can be defined as the ratio of the MALDI ion abundance of the peptide in the organic phase that contains the inverse micelles (Iorg) to the ion abundance of the peptide remaining in the aqueous phase (Iaq) (K=Iorg/Iaq). These experiments were performed with the hypothesis that the extraction would be based on electrostatic interaction between the polymer and the peptide. To test this premise further, two control experiments were carried out. […] Therefore, a two-phase extraction experiment was done in the absence of homopolymer 1, and no peptide extraction into the organic phase was observed. Second, peptide extractions using a polymer without the negatively-charged functionality were performed. Polymer 2 contains charge-neutral pentaethyleneglycol functionalities instead of the carboxylic acid moieties. […] These two results are consistent with the hypothesis that the extraction is based on electrostatics.
Without limitation to any one theory or mode of operation, the pH of the overall aqueous solution is also likely to dictate the pH of the hydrated interiors of the inverse micelle where the binding takes place. Accordingly, extractions at three different pHs: 4.0, 7.1, and 9.0 were carried out; the results of these experiments are listed in Table 1. […] The results from experiments at pH 7.1 and 9.0 further support this idea. It should be noted that when the experiment is carried out at pH 9.0, the peptide with a pI of 7.7 is extracted to some extent. Such a result could be attributed to errors associated with aqueous solution pH measuring or to errors in the peptide pI calculation. Nonetheless, the tunability is still significant and therefore is a very useful result.
A Bruker Reflex III time-of-flight mass spectrometer was used to perform MALDI-MS analysis. The mass spectrometer is equipped with a 337-nm nitrogen laser, a 1.0 m flight tube, and a stainless steel sample target. All mass spectra were acquired in reflectron mode using a voltage of 16 kV. All reported spectra represent an average of 70 shots acquired at 30% laser power. The accelerating voltage was set to 20 kV.
A typical biphasic extraction procedure involves mixing 200 μL of a toluene solution of homopolymer 1 or 2 (1×10^−4 M) with 1 mL of an aqueous solution of peptide(s) that was buffered to pH ˜7.0 with 50 mM Tris/TrisHCl. The mixture is vortexed for 10 to 120 minutes and centrifuged at 12000 rpm for 30-40 minutes to break the resulting emulsion and separate the organic and aqueous layers. The top (organic) layer is then recovered and dried to obtain a solid residue. The residue is redissolved into 10 μL of THF and sonicated for 10 seconds to promote solubilization. Finally, 20 μL of an α-CHCA matrix solution (0.16 Min 60:40:0.3% THF:H2O:TFA) are added to the sample for a final volume of 30 μL. For MALDI-MS analysis the samples are applied to the target using the dried-droplet method, where 1 μL of the sample/matrix mixture is spotted on a stainless-steel target, and the solvent is evaporated at room temperature. The residual aqueous phase (˜1 mL) after extraction is also examined by MALDI-MS. […]

[5] = as above; format: physicochemical; settings: extraction at pH 7.1 followed by extraction at pH 5.5, organic phase
[6] = Extraction of a peptide mixture by positively charged imidazole polymer 4 at pH 4.5, MALDI-MS; format: physicochemical; settings: each peptide 1.0×10^−6 M
Description: Extraction of peptide mixture by positively charged polymer. Illustrating other embodiments of this invention, positively-charged polymers extract peptides with pI values below the aqueous solution pH. Without limitation, polymers with moieties comprising a positively charged nitrogenous group can be used with good effect. Representative of such embodiments, an imidazole-substituted polymer, 4, shown below, can be prepared using straight forward synthetic techniques of the sort described herein, and/or as are well-known to those skilled in the art.
At pH 4.5, kinetensin and angiotensin are positively-charged because the pH is below their pI values. […] FIG. 12C provides a mass spectrum of the aqueous phase after extraction at pH 4.5. The positively-charged peptides remain in the aqueous phase after extraction.

[7] = aqueous solution pH 1.9, polymer 3 reverse micelles in toluene

Row | percentage extracted into toluene alone [2] | extraction efficiency [1] | Compound | pI [3] | Ion abundance ratio (K ± sM) pH 4.0 [4] | Ion abundance ratio (K ± sM) pH 7.1 [4] | Ion abundance ratio (K ± sM) pH 9.0 [4] | extraction in the second step of the sequential extraction [5] | also measured
1 | about 6.6±0.6% | – | O=C(O)c1cc(Cl)ccc1NCCO [pI marker 2] | 3.0 | – | – | – | – | percentage extracted into the organic phase [1, 7]: 54%; percentage of pI marker remaining in the aqueous phase after extraction [1, 7]: 46%
2 | – | – | EDVGSNKGAIIGLM (listed as Homo sapiens) [β-Amyloid, human peptide purchased from American Peptide Company] | – | 17 ± 6 | 0.4 ± 0.2 | 0.10 ± 0.07 | a small amount of β-amyloid was extracted | –
3 | – | – | SSEVAGEGDGDSMGHEDLY (listed as Homo sapiens) [Preproenkephalin, human peptide purchased from American Peptide Company] | – | 2.2 ± 0.9 | 0.4 ± 0.1 | 0.12 ± 0.04 | – | phase distribution after extraction [6]: a small percentage of the preproenkephalin is believed to remain in the aqueous phase
4 | 8.4±0.6% | 21.5±0.4% | O=C(CNc1ccccc1C(=O)O)NCCN1CCOCC1 [pI marker 4] | 5.1 | – | – | – | – | –
5 | 5.9±0.3% | 70±1.6% | CN(C)CCCNC(=O)c1cc(Cl)ccc1O [pI marker 7] | 8.1 | – | – | – | – | Pka1 [3]: 6.80; Pka ([3]; second pKa column): 9.30
6 | – | – | LVVYPWT [Spinorphin, LVVYPWT] | – | 36 ± 12 | 2.0 ± 1.0 | 1.0 ± 0.5 | extracted into the organic layer | –
